One assay deals with LNcap cells. The experiment in a line: Inhibitory effect on proliferation of LNcap cells (CCK-8, 72 h). In kind it is cell-based. The following applies: Homo sapiens. The procedure:
A dish of LNcap cells (human prostate cancer cells with PTEN deficiency) growing at log phase and in good conditions were taken and digested for 3 min by using 1 mL of pancreatin, then the mixture was added with 4 mL of complete culture medium to terminate digestion, and the cells were added to a centrifuge tube. 20 μL of cells were taken and counted, the required number of cells (mL) was pipetted and centrifuged at 1200 rpm for 5 min, the supernatant was discarded, and an appropriate amount of plating medium (RPMI medium+5% FBS+1% sodium pyruvate+1% glutamine) was added to adjust the cell density to 3×10^4 cells/mL. The cells were seeded on a 96-well plate at 100 μL/well using a multi-channel pipette and cultured in a cell incubator at 37° C., 5% CO2 and saturated humidity. After incubation overnight, compounds were loaded using a nanoliter pipettor, 2 duplicate wells were set for each concentration, and cells without compound were used as negative controls. After 72 h, CCK-8 was added at 10 μL/well for incubation for 4 h, then absorbance was measured at 450 nm with an Envision plate reader, and inhibition rate was calculated. Inhibition rate (%)=(mean value of negative control group−mean value of experimental group)/(mean value of negative control group−mean value of blank group)×100%. A dose-response curve was fitted by four-parameter analysis, with the logarithm of compound concentration as abscissa and inhibition rate as ordinate, so that IC50 was calculated.

The next assay addresses T1, AKT1 (S473) (Homo sapiens, UniProt P31749).
T1 construct: endogenous in cells; host or cells: LNcap cells
Kind of assay: Inhibitory effect on phosphorylation of LNcap cells AKT1 (S473). In kind it is cell-based. The note with it: 1 h incubation. Here is the method:
LNcap cells AKT1 (S473) growing at log phase were taken, digested with 1 mL of pancreatin for 3 min, and added with 4 mL of complete medium to terminate digestion. The cells were added to a centrifuge tube. 20 μL of cells were taken and counted, the required number of cells (mL) was taken and centrifuged at 1200 rpm for 5 min, and a plating medium (2% FBS+phenol-free red 1640 base medium+1% sodium pyruvate+1% glutamine) was added to adjust the cell density to about 1×10E6 cells/mL. The cells were plated (96 wells) at the above cell density (100 μL/well), and cultured in a cell incubator at 37° C., 5% CO2 overnight; the next day, according to the plate distribution, the corresponding compound was sprayed using a nanoliter pipettor and incubated for 1 h at 37° C. in a cell incubator containing 5% CO2; the supernatant was discarded, and the plate was added with 40 μL of lysis buffer (1×) containing blocking buffer and incubated by shaking at room temperature for 30 min. After the mixture was mixed, 16 μL of lysate was transferred to another 384-well small-volume white plate. The plate was added with 4 μL of pre-mixed antibody (v/v) in assay buffer, covered, centrifuged to mix well, and incubated overnight at room temperature. The 665 nm/620 nm signal value was detected using a PE Envision multi-functional microplate reader, and IC50 was calculated by four-parameter fitting.

Setting [1] is: LNcap cells, CCK-8, read-out: LNcap cells IC50.
[2] abbreviates: LNCaP, read-out: LNcap cells IC50.

In general, IC50 refers to the point on the concentration scale where inhibition reaches its midpoint.

Where two headings read alike, the source gives them in different places.

T1 sequence (P31749 whole entry): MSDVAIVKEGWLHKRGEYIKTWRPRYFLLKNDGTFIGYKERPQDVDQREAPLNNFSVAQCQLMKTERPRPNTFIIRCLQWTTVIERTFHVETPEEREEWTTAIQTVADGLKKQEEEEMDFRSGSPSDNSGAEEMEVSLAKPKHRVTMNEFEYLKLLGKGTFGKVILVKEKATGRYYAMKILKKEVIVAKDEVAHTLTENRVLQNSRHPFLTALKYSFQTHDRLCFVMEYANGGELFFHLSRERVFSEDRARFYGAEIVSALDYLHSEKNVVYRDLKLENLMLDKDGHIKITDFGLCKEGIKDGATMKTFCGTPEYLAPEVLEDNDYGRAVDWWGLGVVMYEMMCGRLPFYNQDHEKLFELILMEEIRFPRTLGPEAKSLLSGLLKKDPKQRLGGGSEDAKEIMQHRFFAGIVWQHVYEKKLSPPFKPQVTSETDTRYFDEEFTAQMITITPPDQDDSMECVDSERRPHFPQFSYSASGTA

On to `Nc1ncccc1-c1nc2ccc(-c3cccc(N4CCC(N5CCC(F)(F)C5=O)CC4)c3)nc2n1-c1ccc(C2(N)CCC2)cc1` [Compound 34], for which the IC50 with LNcap cells (setting [1]) stood at 0.0029 µM; on AKT1 (S473) it was 0.025 µM.
With `Nc1ncccc1-c1nc2ccc(-c3cccc(N4CC5(COC5)C4)c3)nc2n1-c1ccc(C2(N)CCC2)cc1` [Compound 13], the IC50 in the assay with LNcap cells (setting [2]) was determined as 0.02 µM.
For the compound `CC(=O)N1CCC2(C1)CN(c1cccc(-c3ccc4nc(-c5cccnc5N)n(-c5ccc(C6(N)CCC6)cc5)c4n3)c1F)C2` [Compound 37], the half-inhibitory concentration (IC50) turned out to be 0.0076 µM in the assay on LNcap cells (setting [1]) and 0.011 µM at AKT1 (S473).
The corresponding values for `CC(=O)N1CCC2(CC1)CN(c1cccc(-c3ccc4nc(-c5cccnc5N)n(-c5ccc(C6(N)CCC6)cc5)c4n3)c1F)C2` [Compound 35] are 0.005 µM and 0.012 µM.
As for `[2H]C([2H])([2H])N(C(C)=O)C1CCN(c2cccc(-c3ccc4nc(-c5cccnc5N)n(-c5ccc(C6(N)CCC6)cc5)c4n3)c2F)CC1` [Compound 55], the IC50 is 0.0021 µM in the assay on LNcap cells (setting [1]) and 0.0071 µM at AKT1 (S473).
Consider `Nc1ncccc1-c1nc2ccc(-c3cccc(N4CCC(N5CCCCS5(=O)=O)CC4)c3F)nc2n1-c1ccc(C2(N)CCC2)cc1` [Compound 41], for which the results for the IC50 with LNcap cells (setting [1]) and against AKT1 (S473) were 0.01 µM and 0.041 µM, respectively.
Turning to `CN(C1CCN(c2cccc(-c3ccc4nc(-c5cccnc5N)n(-c5ccc(C6(N)CCC6)cc5)c4n3)c2F)CC1)S(C)(=O)=O` [Compound 32], the values for the half-maximal inhibitory concentration (IC50) in the assay with LNcap cells (setting [1]) and against AKT1 (S473) were 0.0043 µM and 0.011 µM, respectively.
`CC(=O)N1CC2CN(c3cccc(-c4ccc5nc(-c6cccnc6N)n(-c6ccc(C7(N)CCC7)cc6)c5n4)c3)CC21` (centres unmarked) [Compound 26]: the half-maximal inhibitory concentration (IC50) in the assay with LNcap cells (setting [1]) came to 0.014 µM.
Regarding `[2H]C([2H])([2H])N(C(C)=O)C1CCN(c2cccc(-c3ccc4nc(-c5cccnc5N)n(-c5ccc(C6(N)CCC6)cc5)c4n3)c2)CC1` [Compound 54], the IC50 with LNcap cells (setting [2]) is 0.0022 µM.
Take `Nc1ncccc1-c1nc2ccc(-c3cccc(N4CCN(C5COC5)CC4)c3)nc2n1-c1ccc(C2(N)CCC2)cc1` [Compound 11]: the results for the IC50 with LNcap cells (setting [1]) and at AKT1 (S473) were 0.012 µM and 0.019 µM, respectively.
`Nc1ncccc1-c1nc2ccc(-c3cccc(N4CCC(N5CCCS5(=O)=O)CC4)c3F)nc2n1-c1ccc(C2(N)CCC2)cc1` [Compound 42]: in the assay with LNcap cells (setting [1]), the IC50 stood at 0.021 µM.
As to `CC#CC(=O)N1CCCC1c1cccc(-c2ccc3nc(-c4cccnc4N)n(-c4ccc(C5(N)CCC5)cc4)c3n2)c1` (centres unmarked) [Compound 1], the concentration for half-maximal inhibition (IC50) with LNcap cells (setting [1]) is 0.016 µM; against AKT1 (S473), 0.034 µM.
`CC1COC(=O)N1C1CCN(c2cccc(-c3ccc4nc(-c5cccnc5N)n(-c5ccc(C6(N)CCC6)cc5)c4n3)c2)CC1` (centres unmarked) [Compound 39]: the results for the IC50 in the assay on LNcap cells (setting [2]) and at AKT1 (S473) were 0.011 µM and 0.042 µM, respectively.
For `C=CC(=O)Nc1ccc(-c2ccc3nc(-c4cccnc4N)n(-c4ccc(C5(N)CCC5)cc4)c3n2)cc1` [Compound 3], in that order: 0.0065 µM and 0.02 µM.
On to `CC1CN(c2cccc(-c3ccc4nc(-c5cccnc5N)n(-c5ccc(C6(N)CCC6)cc5)c4n3)c2F)CCC1N1CCCC1=O` (centres unmarked) [Compound 46], for which the IC50 in the assay with LNcap cells (setting [1]) is 0.0075 µM.
For `CC1CN(C2COC2)CCN1c1cccc(-c2ccc3nc(-c4cccnc4N)n(-c4ccc(C5(N)CCC5)cc4)c3n2)c1` (centres unmarked) [Compound 10], the IC50 is 0.021 µM with LNcap cells (setting [2]) and 0.047 µM against AKT1 (S473).
On to `CC(=O)N(C)[C@H]1CCN(c2cccc(-c3ccc4nc(-c5cccnc5N)n(-c5ccc(C6(N)CCC6)cc5)c4n3)c2)C1` [Compound 31], for which the IC50 in the assay with LNcap cells (setting [2]) is 0.028 µM.
For `CN1CC2(CC1=O)CN(c1cccc(-c3ccc4nc(-c5cccnc5N)n(-c5ccc(C6(N)CCC6)cc5)c4n3)c1)C2` [Compound 33], the figures for the 50% inhibitory concentration (IC50) in the assay on LNcap cells (setting [1]) and against AKT1 (S473) were 0.011 µM and 0.017 µM, respectively.
For `CC(=O)N(C)[C@@H]1C[C@H]2CC[C@@H](C1)N2c1cccc(-c2ccc3nc(-c4cccnc4N)n(-c4ccc(C5(N)CCC5)cc4)c3n2)c1` [Compound 43], in the assay on LNcap cells (setting [1]), the half-maximal inhibitory concentration (IC50) was 0.047 µM.
For the compound `[2H]C1([2H])CC(N2CCCC2=O)CC([2H])([2H])N1c1cccc(-c2ccc3nc(-c4cccnc4N)n(-c4ccc(C5(N)CCC5)cc4)c3n2)c1F` [Compound 38], the IC50 in the assay on LNcap cells (setting [1]) amounted to 0.011 µM; against AKT1 (S473), 0.013 µM.
On to `Nc1ncccc1-c1nc2ccc(-c3cccc(N4CCN5C(=O)CCC5C4)c3)nc2n1-c1ccc(C2(N)CCC2)cc1` (centres unmarked) [Compound 9], for which the IC50 in the assay on LNcap cells (setting [1]) amounted to 0.024 µM; at AKT1 (S473), 0.016 µM.
Consider `Nc1ncccc1-c1nc2ccc(-c3cccc(N4CC5(CCOCC5)C4)c3)nc2n1-c1ccc(C2(N)CCC2)cc1` [Compound 6], for which the values for the IC50 with LNcap cells (setting [2]) and on AKT1 (S473) were 0.015 µM and 0.054 µM, respectively.
Turning to `CS(=O)(=O)N1CC2(CN(c3cccc(-c4ccc5nc(-c6cccnc6N)n(-c6ccc(C7(N)CCC7)cc6)c5n4)c3)C2)C1` [Compound 17], the IC50 was 0.012 µM in the assay with LNcap cells (setting [1]) and 0.017 µM against AKT1 (S473).
Consider `CC(=O)N1CC2(C1)CN(c1cccc(-c3ccc4nc(-c5cccnc5N)n(-c5ccc(C6(N)CCC6)cc5)c4n3)c1)C2` [Compound 16], for which the values for the 50% inhibitory concentration (IC50) in the assay on LNcap cells (setting [1]) and against AKT1 (S473) were 0.0087 µM and 0.019 µM, respectively.
For `CC(=O)N1CC2CC(C1)N2c1cccc(-c2ccc3nc(-c4cccnc4N)n(-c4ccc(C5(N)CCC5)cc4)c3n2)c1F` [Compound 47], the IC50 with LNcap cells (setting [1]) was found to be 0.081 µM.
With `CC(=O)N(C)[C@@H]1CCN(c2cccc(-c3ccc4nc(-c5cccnc5N)n(-c5ccc(C6(N)CCC6)cc5)c4n3)c2)C1` [Compound 24], in the assay with LNcap cells (setting [2]), the concentration for half-maximal inhibition (IC50) stood at 0.041 µM.
On to `CC(=O)N(C)CCN(C)c1cccc(-c2ccc3nc(-c4cccnc4N)n(-c4ccc(C5(N)CCC5)cc4)c3n2)c1` [Compound 29], for which the IC50 with LNcap cells (setting [1]) turned out to be 0.046 µM.
For `C=CC(=O)NCc1cccc(-c2ccc3nc(-c4cccnc4N)n(-c4ccc(C5(N)CCC5)cc4)c3n2)c1` [Compound 2], the results for the IC50 in the assay on LNcap cells (setting [1]) and at AKT1 (S473) were 0.034 µM and 0.017 µM, respectively.
As to `CC(=O)N1C[C@@H]2CN(c3cccc(-c4ccc5nc(-c6cccnc6N)n(-c6ccc(C7(N)CCC7)cc6)c5n4)c3F)C[C@@H]2C1` [Compound 40], the concentration for half-maximal inhibition (IC50) with LNcap cells (setting [1]) was 0.019 µM.
For `CC(=O)N1CC2(CCN(c3cccc(-c4ccc5nc(-c6cccnc6N)n(-c6ccc(C7(N)CCC7)cc6)c5n4)c3F)C2)C1` [Compound 36], the IC50 with LNcap cells (setting [1]) was determined as 0.014 µM.
`CC1CC(N2CCCC2=O)CCN1c1cccc(-c2ccc3nc(-c4cccnc4N)n(-c4ccc(C5(N)CCC5)cc4)c3n2)c1` (centres unmarked) [Compound 48]: the half-maximal inhibitory concentration (IC50) in the assay on LNcap cells (setting [1]) was 0.0069 µM.
On the same count and under the same terms, as for `CC(=O)N(C)C1CCCN(c2cccc(-c3ccc4nc(-c5cccnc5N)n(-c5ccc(C6(N)CCC6)cc5)c4n3)c2)C1` (centres unmarked) [Compound 27], the figure is 0.02 µM.
Take `CC(=O)N1CC[C@@H](N(C)c2cccc(-c3ccc4nc(-c5cccnc5N)n(-c5ccc(C6(N)CCC6)cc5)c4n3)c2)C1` [Compound 7]: the IC50 in the assay on LNcap cells (setting [2]) came out at 0.048 µM.
With `Nc1ncccc1-c1nc2ccc(-c3cccc(N4CCCS4(=O)=O)c3)nc2n1-c1ccc(C2(N)CCC2)cc1` [Compound 20], the half-inhibitory concentration (IC50) in the assay on LNcap cells (setting [1]) stood at 0.015 µM.
In the case of `Nc1ncccc1-c1nc2ccc(-c3cccc(N4CC5COCC5C4)c3)nc2n1-c1ccc(C2(N)CCC2)cc1` (centres unmarked) [Compound 18], the IC50 in the assay with LNcap cells (setting [2]) amounted to 0.018 µM.
For `Nc1ncccc1-c1nc2ccc(-c3cccc(N4CCC(N5CCCC5=O)CC4)c3)nc2n1-c1ccc(C2(N)CCC2)cc1` [Compound 21], the results for the IC50 in the assay on LNcap cells (setting [1]) and against AKT1 (S473) were 0.003 µM and 0.023 µM, respectively.
With `CN1CC2(CC1=O)CN(c1cccc(-c3ccc4nc(-c5cccnc5N)n(-c5ccc(C6(N)CCC6)cc5)c4n3)c1F)C2` [Compound 49], the IC50 in the assay with LNcap cells (setting [1]) turned out to be 0.004 µM.

(Values after patent US20230357242A1, “COMPOUND AS AKT KINASE INHIBITOR” (CHIA TAI TIANQING PHARMACEUTICAL GROUP CO., LTD., priority 2020, published 2023).)
